Laboratory results from patent US20170217976A1, “6-(AMINO ACID)-MORPHINAN DERIVATIVES IN COMBINATION WITH PERMEATION […] FOR USE AS AN ORALLY, […], TRA[…] NASALLY AD[…]” (C[…], priority 2014, published 2017).
Read-outs that look alike come from different tables or passages of the source.

Legend:
[1] = target: T1, DOR (Rattus norvegicus, UniProt P33533); experiment: Opioid receptor binding, DOR, rat brain membranes
T1 construct: from tissue

[2] = target: T2, KOR (Cavia porcellus, UniProt P41144); experiment: Opioid receptor binding, KOR, guinea pig brain membranes
T2 construct: from tissue
T2 sequence (P41144 whole entry): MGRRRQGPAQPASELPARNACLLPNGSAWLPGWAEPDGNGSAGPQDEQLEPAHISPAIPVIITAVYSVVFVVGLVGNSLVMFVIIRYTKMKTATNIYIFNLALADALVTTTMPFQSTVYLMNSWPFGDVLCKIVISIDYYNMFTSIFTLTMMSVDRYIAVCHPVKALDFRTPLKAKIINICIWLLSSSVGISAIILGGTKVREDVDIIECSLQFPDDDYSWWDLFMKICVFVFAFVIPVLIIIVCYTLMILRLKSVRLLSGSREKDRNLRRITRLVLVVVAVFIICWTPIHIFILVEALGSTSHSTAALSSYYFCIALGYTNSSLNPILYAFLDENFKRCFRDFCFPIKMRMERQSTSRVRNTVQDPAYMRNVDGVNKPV

[3] = target: T3, MOR (Rattus norvegicus, UniProt P33535); experiment: Opioid receptor binding, MOR, rat brain membranes
T3 construct: from tissue
T3 sequence (P33535 whole entry): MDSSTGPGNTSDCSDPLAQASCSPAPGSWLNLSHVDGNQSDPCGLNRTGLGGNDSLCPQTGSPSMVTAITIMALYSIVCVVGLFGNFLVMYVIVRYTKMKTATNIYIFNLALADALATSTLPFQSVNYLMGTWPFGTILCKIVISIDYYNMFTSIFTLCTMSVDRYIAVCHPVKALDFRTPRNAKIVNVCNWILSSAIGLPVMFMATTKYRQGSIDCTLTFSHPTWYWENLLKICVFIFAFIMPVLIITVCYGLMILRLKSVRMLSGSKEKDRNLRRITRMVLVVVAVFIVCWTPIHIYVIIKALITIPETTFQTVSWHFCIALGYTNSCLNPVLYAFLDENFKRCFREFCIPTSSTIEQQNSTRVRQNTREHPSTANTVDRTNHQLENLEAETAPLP

[4] = Binding Ki (nM) DOR, in vitro binding assay, rat brain membranes
[5] = Binding Ki DOR, Table 1-4, rat brain membranes
[6] = Binding Ki (nM) KOR, in vitro binding assay, guinea pig brain membranes
[7] = Binding Ki KOR, Table 1-4, guinea pig brain membranes
[8] = Binding Ki (nM) MOR, in vitro binding assay, rat brain membranes
[9] = Binding Ki MOR, Table 1-4, rat brain membranes
[10] = Binding Ki DOR, Table 2-6, rat brain membranes
[11] = Binding Ki KOR, Table 2-6, guinea pig brain membranes
[12] = Binding Ki MOR, Table 2-6, rat brain membranes
[13] = Binding Ki DOR, Table 1-6, rat brain membranes
[14] = Binding Ki KOR, Table 1-6, guinea pig brain membranes
[15] = Binding Ki MOR, Table 1-6, rat brain membranes
[16] = in vitro binding assay, rat brain membranes, read-out: Binding Ki (nM) DOR
[17] = in vitro binding assay, guinea pig brain membranes, read-out: Binding Ki (nM) KOR
[18] = in vitro binding assay, rat brain membranes, read-out: Binding Ki (nM) MOR

T1 sequence (P33533 whole entry): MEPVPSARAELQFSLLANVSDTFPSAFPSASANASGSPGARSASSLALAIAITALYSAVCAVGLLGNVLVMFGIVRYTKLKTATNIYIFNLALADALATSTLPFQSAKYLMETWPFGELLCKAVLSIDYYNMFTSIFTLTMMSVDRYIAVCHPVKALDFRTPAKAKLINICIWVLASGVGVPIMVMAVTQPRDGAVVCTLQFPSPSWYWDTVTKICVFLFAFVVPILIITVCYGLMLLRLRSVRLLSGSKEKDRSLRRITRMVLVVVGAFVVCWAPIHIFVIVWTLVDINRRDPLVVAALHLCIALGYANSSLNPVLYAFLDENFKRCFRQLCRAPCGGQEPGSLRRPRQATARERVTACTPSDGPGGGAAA

Structure (SMILES)	Ki [1, 4]	Ki [2, 6]	Ki [3, 8]	Ki [1, 10]	Ki [2, 11]	Ki [3, 12]	Ki [1, 16]	Ki [2, 17]	also measured
CC[C@H](C)[C@H](N[C@@H]1CC[C@@]2(OC)[C@H]3Cc4ccc(O)c5c4[C@@]2(CCN3C)[C@H]1O5)C(=O)O [Compound 43]	1.3 nM	163 nM	1.46 nM	–	–	–	–	–	Ki [1, 5]: 1.3 nM; Ki [2, 7]: 163 nM; Ki [3, 9]: 1.46 nM
CCO[C@@]12CC[C@H](N[C@@H](Cc3ccccc3)C(=O)O)[C@@H]3Oc4c(O)ccc5c4[C@@]31CCN(CC1CC1)[C@@H]2C5 [Compound 55]	–	–	–	0.7 nM	2.6 nM	0.35 nM	–	–	–
CO[C@@]12CC[C@@H](NCCC(=O)OC(C)(C)C)[C@@H]3Oc4c(O)ccc5c4[C@@]31CCN(C)[C@@H]2C5 [22-t-Bu ester]	0.23 nM	7.54 nM	0.35 nM	–	–	–	–	–	–
CO[C@@]12CC[C@@H](N[C@@H](CC(N)=O)C(=O)O)[C@@H]3Oc4c(O)ccc5c4[C@@]31CCN(C)[C@@H]2C5 [Compound 27]	2.25 nM	103 nM	1.26 nM	–	–	–	–	–	Ki [1, 5]: 2.25 nM; Ki [2, 7]: 103 nM; Ki [3, 9]: 1.26 nM
CN1CC[C@]23c4c5ccc(O)c4O[C@H]2[C@@H](N[C@@H](Cc2ccccc2)C(=O)O)CC[C@@]3(O)[C@H]1C5 [Compound 11]	–	–	–	–	–	–	–	–	Ki [1, 5]: 19 nM; Ki [2, 7]: 344 nM; Ki [3, 9]: 2.3 nM
CC[C@H](N[C@@H]1CC[C@@]2(OC)[C@H]3Cc4ccc(O)c5c4[C@@]2(CCN3CC2CC2)[C@H]1O5)C(=O)O [Compound 79]	–	–	–	–	–	–	–	–	Ki [1, 13]: 6.2 nM; Ki [2, 14]: 19.1 nM; Ki [3, 15]: 3.39 nM
CCCCCCCCOC(=O)CN[C@H]1CC[C@@]2(OC)[C@H]3Cc4ccc(O)c5c4[C@@]2(CCN3C)[C@H]1O5 [HS730-nOc ester]	–	–	–	–	–	–	3.23 nM	2.97 nM	Ki [3, 18]: 1.29 nM
CO[C@@]12CC[C@@H](N[C@@H](CCCCN)C(=O)OC(C)(C)C)[C@@H]3Oc4c(O)ccc5c4[C@@]31CCN(C)[C@@H]2C5 [39-t-Bu ester]	–	–	–	–	–	–	0.88 nM	21.4 nM	Ki [3, 18]: 0.58 nM
COC12CCC(NC(C(=O)O)C(C)C)C3Oc4c(O)ccc5c4C31CCN(CC1CC1)C2C5 (single isomer, unassigned) [Compound 71]	–	–	–	0.35 nM	23 nM	1.52 nM	–	–	Ki [1, 13]: 0.35 nM; Ki [2, 14]: 23 nM; Ki [3, 15]: 1.52 nM
CO[C@@]12CC[C@@H](N[C@@H](CCSC)C(=O)OC(C)(C)C)[C@@H]3Oc4c(O)ccc5c4[C@@]31CCN(C)[C@@H]2C5 [24-t-Bu ester]	0.81 nM	166 nM	1.83 nM	–	–	–	–	–	–
COC12CCC(NC(C(=O)O)C(C)C)C3Oc4c(O)ccc5c4C31CCN(CC1CC1)C2C5 (single isomer, unassigned) [Compound 70]	–	–	–	0.71 nM	3.54 nM	0.62 nM	–	–	Ki [1, 13]: 0.71 nM; Ki [2, 14]: 3.54 nM; Ki [3, 15]: 0.62 nM
CO[C@@]12CC[C@H](N[C@@H](Cc3ccccc3)C(=O)O)[C@@H]3Oc4c(O)ccc5c4[C@@]31CCN(CC1CC1)[C@@H]2C5 [Compound 57]	–	–	–	1.17 nM	4.21 nM	0.51 nM	–	–	–
CC[C@H](C)[C@H](N[C@@H]1CC[C@@]2(OC)[C@H]3Cc4ccc(O)c5c4[C@@]2(CCN3CC2CC2)[C@H]1O5)C(=O)O [Compound 78]	–	–	–	1.44 nM	9.49 nM	1.62 nM	–	–	–
CO[C@@]12CC[C@@H](NCC(=O)OC(C)(C)C)[C@@H]3Oc4c(O)ccc5c4[C@@]31CCN(C)[C@@H]2C5 [HS731-t-Bu ester]	–	–	1.3 nM	–	–	–	0.68 nM	56.2 nM	–
CO[C@@]12CC[C@H](N[C@@H](CCSC)C(=O)O)[C@@H]3Oc4c(O)ccc5c4[C@@]31CCN(C)[C@@H]2C5 [Compound 23]	4.03 nM	109 nM	0.93 nM	–	–	–	–	–	Ki [1, 5]: 4.03 nM; Ki [2, 7]: 109 nM; Ki [3, 9]: 0.93 nM
CO[C@@]12CC[C@H](N[C@@H](C(=O)OC(C)(C)C)C(C)C)[C@@H]3Oc4c(O)ccc5c4[C@@]31CCN(C)[C@@H]2C5 [30-t-Bu ester]	–	–	–	–	–	–	0.093 nM	22.7 nM	Ki [3, 18]: 0.11 nM
CO[C@@]12CC[C@H](N[C@@H](Cc3ccccc3)C(=O)OC(C)(C)C)[C@@H]3Oc4c(O)ccc5c4[C@@]31CCN(C)[C@@H]2C5 [3-t-Bu ester]	–	–	–	–	–	–	0.93 nM	32.5 nM	Ki [3, 18]: 0.5 nM
CO[C@@]12CC[C@@H](N[C@@H](C)C(=O)O)[C@@H]3Oc4c(O)ccc5c4[C@@]31CCN(CC1CC1)[C@@H]2C5 [Compound 72]	–	–	–	5.8 nM	11.5 nM	2.13 nM	–	–	Ki [1, 13]: 5.8 nM; Ki [2, 14]: 11.5 nM; Ki [3, 15]: 2.13 nM
COC12CCC(NCCC(=O)O)C3Oc4c(O)ccc5c4C31CCN(C)C2C5 (single isomer, unassigned) [Compound 22]	13.9 nM	71.4 nM	1.04 nM	–	–	–	–	–	Ki [1, 5]: 13.9 nM; Ki [2, 7]: 71.4 nM; Ki [3, 9]: 1.04 nM
CCO[C@@]12CC[C@@H](NCC(=O)OC(C)(C)C)[C@@H]3Oc4c(O)ccc5c4[C@@]31CCN(C)[C@@H]2C5 [6-t-Bu ester]	–	–	–	–	–	–	0.57 nM	34.1 nM	Ki [3, 18]: 0.81 nM
